From patent US9249135B2, “Therapeutic agent for mood disorders” (KYOWA HAKKO KIRIN CO., LTD., priority 2009, dated 2016) come the findings set out here.

Experiment [1] relates to rats. As to the kind of experiment: Learned helplessness model of depression in rats. In kind it is in vivo, rat (male SD). An excerpt:
From the effects of existing antidepressants and the like on this system, this test is deemed a higher level animal model in rodents.
The male SD rats (190 to 260 g; Charles River Japan Inc.) were used in this study. On Day 1 of experiment, a partition board was placed in the center of the shuttle box to create two compartments so that the animals could not move from one compartment to another (220×200×260 mm). In each compartment, one rat was placed. The animals were retained in the shuttle box for 50 minutes and exposed to electrical shocks (IES) given via stainless floor grids with the light on. […]
On Day 2 of experiment, the partition board in the center of the shuttle box was removed and replaced by a hurdle 2 cm in height to create two comportments so that the animals could move from one compartment to another. […] Animal's behavior was evaluated according to the following procedures.
FR1: A buzzer was activated for 10 seconds. […] This procedure counted as one trial, and was continuously repeated 15 times.
FR2: Electric stimuli (0.5 mA) were applied for 10 seconds to a rat via the floor grids in the compartment where the animal stayed. […] This procedure counted as one trial, and was continuously repeated 15 times. […]

Experiment [2] has as its system mice. As to the kind of experiment: Forced swim test in mice. In kind it is in vivo, mouse (male ddY-strain). The source says: The forced swim test in rats and mice is widely used for test system which evaluates antidepressant activities (Arch. Int. Pharmacodyn. Ther. 229, p.327 (1977)). The forced swim test is means for evaluating depressive state using the length of time during which the animal ceases its escape behavior due to a sense of helplessness (immobility time) as an index thereof by placing a mouse or a rat in water in an inescapable cylinder. Since immobility time is shortened by existing antidepressants, this is known as an animal model of depression. The male ddY-strain mice (20 to 29 g; Japan SLC, Inc.) were used in this study. A transparent acrylic water bath 10 cm in diameter and 25 cm in height was filled with water at 23° C.±1° C. to a depth of 10 cm. Each mouse was slowly placed in the water bath. At 2 minutes after placement in the bath, immobility time (duration during which no escape behavior was observed) was measured for 4 minutes. The test compound was used for the test in suspension in distilled water for injection (manufactured by Otsuka Pharmaceutical Co.,) containing 0.5 w/v % MC (methylcellulose). […] The antidepressant activity of the test compound was evaluated with the immobility time for the vehicle control group and that for the test compound dose group as indexes. […]

Experiment [3] has as its system rats. As to the kind of experiment: Forced swim test in rats. Type of experiment: in vivo, rat (male SD-strain). An excerpt: The forced swim test in rats and mice is widely used for test system which evaluates antidepressant activities (Arch. Int. Pharmacodyn. Ther. 229, p.327 (1977)). The forced swim test is means for evaluating depressive state using the length of time during which the animal ceases its escape behavior due to a sense of helplessness (immobility time) as an index thereof by placing a mouse or a rat in water in an inescapable cylinder. Since immobility time is shortened by existing antidepressants, this is known as an animal model of depression. The male SD-strain rats (200 to 270 g; Charles River Japan Inc.) were used in this study. A transparent acrylic water bath 18 cm in diameter and 40 cm in height was filled with water at 25° C.±1° C. to a depth of 19 cm. Each rat was slowly placed in the water bath, allowed to stand for 15 minutes, then removed from the bath and dried with a piece of paper towel. The animals were then dried under a table light for 15 minutes and returned to the respective cages (induction of pathological condition). On the following day, the rats were slowly placed in the same water bath. Immediately, immobility time was measured for 5 minutes. […] The antidepressive action of the test compound was evaluated with the immobility time for the vehicle control group and that for the test compound dose group as indexes. […]

The structures appear in SMILES notation.

For the molecule `Cc1ccc(C(=O)Nc2nc(-c3ccco3)c(C(=O)C3CCOCC3)s2)cn1` [(IC)], in experiment [1] (rats with IES loading, FR2 session, dose of 0.3 mg/kg orally 1 hour before the FR1 session), the “escape rate (escape response %)” value is on record as 88.7±6.7%. Besides, in experiment [1] (rats, single oral dose, in words), the “action on the escape rate reductions by IES loading in the FR2 session” value is given as “significant ameliorating action”. For the same molecule, the immobility time came to 53.1 ± 11.0 s in experiment [2] (mice, 0.1 mg/kg orally 1 hour before the test, measured for 4 minutes, vehicle 179.0 ± 15.2) and 81.5 ± 15.1 s in experiment [3] (rats, 0.1 mg/kg orally 1 hour before the test, measured for 5 minutes, vehicle 204.0 ± 21.0). For the same molecule, the “immobility time compared with that for the vehicle control group” value in experiment [2] (mouse, in words) was “shortened”; in experiment [3] (rat, in words) it was “shortened”.
